This is an account of results in US20260108527A1, “POLO LIKE KINASE 4 INHIBITORS” (ORIC Pharmaceuticals, Inc., priority 2022, published 2026).

In assay [1] the target is T1, human recombinant Aurora A (Homo sapiens, UniProt O14965).
T1 construct: purchased ThermoFisher PR5935A
T1 sequence (O14965 1-403): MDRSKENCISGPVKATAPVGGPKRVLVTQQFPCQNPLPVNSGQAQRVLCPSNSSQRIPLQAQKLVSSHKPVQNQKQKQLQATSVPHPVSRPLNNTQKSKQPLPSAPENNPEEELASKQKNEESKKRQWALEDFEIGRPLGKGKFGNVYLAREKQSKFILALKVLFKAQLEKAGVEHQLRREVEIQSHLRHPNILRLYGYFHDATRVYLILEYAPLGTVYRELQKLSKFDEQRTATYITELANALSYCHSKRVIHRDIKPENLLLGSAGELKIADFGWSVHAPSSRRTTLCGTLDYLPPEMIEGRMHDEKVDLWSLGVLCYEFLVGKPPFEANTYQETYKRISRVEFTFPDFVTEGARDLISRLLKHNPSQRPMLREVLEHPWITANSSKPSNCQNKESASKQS
The assay is described as follows: Aurora A Kinase Biochemical Assay (ADP-Glo). The conditions noted are these: selectivity ratio; Aurora A 2.5 nM, 20 μM ATP. The method, then: Activity of human recombinant Aurora A (ThermoFisher, cat #PR5935A) was measured by quantification of adenosine diphosphate (ADP) using the ADP-Glo Kinase Assay Kit (Promega, cat #V9102). Test compounds were solubilized in dimethyl sulfoxide (DMSO) and dispensed into 384-well white polystyrene nonbinding plates (Greiner, cat #781094) using the Echo acoustic dispenser (Labcyte Inc.) in a 11-point 3-fold titration in duplicates. 5 μL of 5.0 nM Aurora A in assay buffer (50 mM HEPES, pH 7.5, 0.01% Brij-35, 0.01% BSA, 10 mM MgCl2, 1 mM EGTA, 1 mM DTT) was added to the plates. Test compounds and Aurora A were incubated for 15 minutes at room temperature (RT). Then 5 μL of a 40 μM adenosine triphosphate (ATP) (Promega, cat #V915B) and 9.3 μM Myelin Basic Protein (MBP) (SignalChem, cat #M42-51N) substrate solution in assay buffer was added and the reaction mixture was incubated for 2 hours at RT. The final concentration of Aurora A, ATP and MBP in the reactions were 2.5 nM, 20 μM and 4.7 μM, respectively. Reactions were stopped and the remaining ATP depleted by adding 10 μL of ADP-Glo reagent (Promega, cat #V912B) and incubating for 40 minutes at RT. The simultaneous conversion of the remaining ADP to ATP and measurement of the newly synthesized ATP was achieved by addition of 20 μL Kinase Detection reagent (Promega, cat #V914B), incubation for 30 min at RT, and luminescence detection using the EnVision plate reader (PerkinElmer). Reactions lacking Aurora A were used as 100% inhibition controls. Reactions containing DMSO alone were used as 0% inhibition controls. The IC50 values reported in Table 2 were determined using four parameter non-linear regression curve fit.
For orientation: In ADP-Glo the light output rises with the ADP produced.

The next assay relates to CHP134. The assay is described as follows: CHP134 CellTiter-Glo (CTG) Assay. It counts as cell-based. Conditions: Homo sapiens, CHP-134, 120 h; viable cells by CellTiter-Glo after 5 days. The method, then:
[…] cells (DSMZ-German Collection of Microorganisms and Cell Cultures, Braunschweig Germany) were cultured in RPMI 1640 supplemented with 10% fetal bovine serum, penicillin (100 U/ml), 1% L-Glutamine and streptomycin ([…]). Cells were seeded (200 cells/well) in 384-well plates for 16 hours. On day two, nine serial 1:3 compound dilutions were made in DMSO in a 96-well plate. The compounds were then further diluted into growth media using a BRAVO robot (Agilent, Santa Clara, CA). The diluted compounds were then added to quadruplicate wells in the 384-well cell plate and incubated at 37° C. and 5% CO2. After 5 days, relative numbers of viable cells were measured by luminescence using CellTiter-Glo® (Promega) according to the manufacturer's instructions and read on a SPARK Multimode Microplate Reader (Tecan, Mannedorf Switzerland). The IC50 calculations for the values reported in Table 2 were carried out using Prism 6.0 software (GraphPad, San Diego).

In the case of `CCOc1cc(-c2cn(C)cn2)ccc1Nc1n[nH]c2cc([C@@H]3C[C@@]34C(=O)Nc3ccc(OC)cc34)ccc12` [Example 29, (1R,2S)-2-{3-[2-ethoxy-4-(1-methyl-1H-imidazol-4-yl)anilino]-1H-indazol-6-yl}-5′-methoxyspiro[cyclopropane-1,3′-indol]-2′(1′H)-one], the “[Aurora A IC50 (nM)]/[PLK4 IC50 (nM)]” value in assay [1] is listed as 15611.2532. In the assay on CHP134, this molecule showed an IC50 of 466 nM.

Regarding `COc1ccc2c(c1)[C@]1(C[C@H]1c1ccc3c(Nc4cc5c(cc4OC)S(=O)(=O)CC5)n[nH]c3c1)C(=O)N2` [Example 1, 6-methoxy-5-({6-[(1R,2S)-5′-methoxy-2′-oxo-1′,2′-dihydrospiro[cyclopropane-1,3′-indol]-2-yl]-1H-indazol-3-yl}amino)-2,3-dihydro-1H-1-benzothiophene-1,1-dione], the “[Aurora A IC50 (nM)]/[PLK4 IC50 (nM)]” value in assay [1] stood at 2164. In the assay on CHP134, this molecule gave an IC50 of 242 nM.

In the case of `COc1ccc2c(c1)[C@]1(C[C@H]1c1ccc3c(Nc4cc(-c5cnn(CC(F)F)c5)cnc4OC)n[nH]c3c1)C(=O)N2` [Example 46, (1R,2S)-2-(3-((5-(1-(2,2-difluoroethyl)-1H-pyrazol-4-yl)-2-methoxypyridin-3-yl)amino)-1H-indazol-6-yl)-5′-methoxyspiro[cyclopropane-1,3′-indolin]-2′-one], the “[Aurora A IC50 (nM)]/[PLK4 IC50 (nM)]” value in assay [1] is listed as 469.9759. The IC50 with CHP134 came out at 370 nM.

As for `COc1ccc2c(c1)[C@]1(C[C@H]1c1ccc3c(Nc4ccc(C(C)=O)cc4OC)n[nH]c3c1)C(=O)N2` [Example 3, (1R,2S)-2-[3-(4-acetyl-2-methoxyanilino)-1H-indazol-6-yl]-5′-methoxyspiro[cyclopropane-1,3′-indol]-2′(1′H)-one], in assay [1], the “[Aurora A IC50 (nM)]/[PLK4 IC50 (nM)]” value was 1671.3768. The molecule further registered an IC50 in the assay with CHP134 of 308 nM.

As for `COc1ccc2c(c1)[C@]1(C[C@H]1c1ccc3c(Nc4cc(-c5cnco5)ccc4OC)n[nH]c3c1)C(=O)N2` [Example 18, (1R,2S)-5′-methoxy-2-{3-[2-methoxy-5-(1,3-oxazol-5-yl)anilino]-1H-indazol-6-yl}spiro[cyclopropane-1,3′-indol]-2′(1′H)-one], the “[Aurora A IC50 (nM)]/[PLK4 IC50 (nM)]” value in assay [1] stood at 500. The 50% inhibitory concentration (IC50) in the assay on CHP134 stood at 170 nM.

With `COc1ccc2c(c1)[C@]1(C[C@H]1c1ccc3c(Nc4cc(-c5cnn(CC(F)F)c5)ccc4OC)n[nH]c3c1)C(=O)N2` [Example 39, (1R,2S)-2-(3-{5-[1-(2,2-difluoroethyl)-1H-pyrazol-4-yl]-2-methoxyanilino}-1H-indazol-6-yl)-5′-methoxyspiro[cyclopropane-1,3′-indol]-2′(1′H)-one], in assay [1], the “[Aurora A IC50 (nM)]/[PLK4 IC50 (nM)]” value is 1647.6978. For the same molecule, the IC50 in the assay with CHP134 worked out at 202 nM.

Consider `CCOc1cc2ccccc2nc1Nc1n[nH]c2cc([C@@H]3C[C@@]34C(=O)Nc3ccc(OC)cc34)ccc12` [Example 8, (1R,2S)-2-{3-[(3-ethoxyquinolin-2-yl)amino]-1H-indazol-6-yl}-5′-methoxyspiro[cyclopropane-1,3′-indol]-2′(1′H)-one], for which the “[Aurora A IC50 (nM)]/[PLK4 IC50 (nM)]” value in assay [1] is recorded as 27382.2563. The molecule further showed an IC50 in the assay on CHP134 of 490 nM.

As for `CCOc1ccc(-c2nccs2)nc1Nc1n[nH]c2cc([C@@H]3C[C@@]34C(=O)Nc3ccc(OC)cc34)ccc12` [Example 28, (1R,2S)-2-(3-{[3-ethoxy-6-(1,3-thiazol-2-yl)pyridin-2-yl]amino}-1H-indazol-6-yl)-5′-methoxyspiro[cyclopropane-1,3′-indol]-2′(1′H)-one], the “[Aurora A IC50 (nM)]/[PLK4 IC50 (nM)]” value in assay [1] was 1135. Moreover, half-maximal inhibition in the assay with CHP134 (IC50) required 16.7 nM.

Consider `COc1ccc2c(c1)[C@]1(C[C@H]1c1ccc3c(Nc4ccc(-c5nnn(C)n5)cc4OC)n[nH]c3c1)C(=O)N2` [Example 17, (1R,2S)-5′-methoxy-2-{3-[2-methoxy-4-(2-methyl-2H-tetrazol-5-yl)anilino]-1H-indazol-6-yl}spiro[cyclopropane-1,3′-indol]-2′(1′H)-one], for which the “[Aurora A IC50 (nM)]/[PLK4 IC50 (nM)]” value in assay [1] is 1000. In the assay with CHP134, inhibition was half-maximal at 370 nM (IC50).

Consider `COc1ccc2c(c1)[C@]1(C[C@H]1c1ccc3c(Nc4cc(-c5cocn5)ccc4OC)n[nH]c3c1)C(=O)N2` [Example 16, (1R,2S)-5′-methoxy-2-{3-[2-methoxy-5-(1,3-oxazol-4-yl)anilino]-1H-indazol-6-yl}spiro[cyclopropane-1,3′-indol]-2′(1′H)-one], for which the “[Aurora A IC50 (nM)]/[PLK4 IC50 (nM)]” value in assay [1] was determined as 259.1. In the assay with CHP134, this molecule gave an IC50 of 160 nM.

`COc1ccc2c(c1)[C@]1(C[C@H]1c1ccc3c(Nc4cc(-c5cnn(C)c5)cnc4OC)n[nH]c3c1)C(=O)N2` [Example 26, (1R,2S)-5′-methoxy-2-(3-{[2-methoxy-5-(1-methyl-1H-pyrazol-4-yl)pyridin-3-yl]amino}-1H-indazol-6-yl)spiro[cyclopropane-1,3′-indol]-2′(1′H)-one]: in assay [1], the “[Aurora A IC50 (nM)]/[PLK4 IC50 (nM)]” value was 992.1456. Besides, the half-maximal inhibitory concentration (IC50) in the assay with CHP134 came to 171 nM.

For the molecule `COc1ccc2c(c1)[C@]1(C[C@H]1c1ccc3c(Nc4nc(-c5cnn(C)c5)ncc4OC)n[nH]c3c1)C(=O)N2` [Example 31, (1R,2S)-5′-methoxy-2-(3-{[5-methoxy-2-(1-methyl-1H-pyrazol-4-yl)pyrimidin-4-yl]amino}-1H-indazol-6-yl)spiro[cyclopropane-1,3′-indol]-2′(1′H)-one], in assay [1], the “[Aurora A IC50 (nM)]/[PLK4 IC50 (nM)]” value is listed as 743.0555. Moreover, half-maximal inhibition with CHP134 (IC50) required 135 nM.

For `CCOc1cc(-c2cnccn2)ccc1Nc1n[nH]c2cc([C@@H]3C[C@@]34C(=O)Nc3ccc(OC)cc34)ccc12` [Example 7, (1R,2S)-2-{3-[2-ethoxy-4-(pyrazin-2-yl)anilino]-1H-indazol-6-yl}-5′-methoxyspiro[cyclopropane-1,3′-indol]-2′(1′H)-one], the “[Aurora A IC50 (nM)]/[PLK4 IC50 (nM)]” value in assay [1] came to 10956.01173. Also, in the assay on CHP134, the IC50 stood at 166 nM.

Consider `COc1ccc2c(c1)[C@]1(C[C@H]1c1ccc3c(Nc4cc(-c5ccsn5)ccc4OC)n[nH]c3c1)C(=O)N2` [Example 30, (1R,2S)-5′-methoxy-2-{3-[2-methoxy-5-(1,2-thiazol-3-yl)anilino]-1H-indazol-6-yl}spiro[cyclopropane-1,3′-indol]-2′(1′H)-one], for which the “[Aurora A IC50 (nM)]/[PLK4 IC50 (nM)]” value in assay [1] was found to be 916.8947. The molecule further returned an IC50 with CHP134 of 97.4 nM.

Turning to `CCOc1cc(-n2cncn2)ccc1Nc1n[nH]c2cc([C@@H]3C[C@@]34C(=O)Nc3ccc(OC)cc34)ccc12` [Example 10, (1R,2S)-2-{3-[2-ethoxy-4-(1H-1,2,4-triazol-1-yl)anilino]-1H-indazol-6-yl}-5′-methoxyspiro[cyclopropane-1,3′-indol]-2′(1′H)-one], the “[Aurora A IC50 (nM)]/[PLK4 IC50 (nM)]” value in assay [1] was 2540.3949. The molecule further yielded a half-maximal inhibitory concentration (IC50) in the assay on CHP134 of 120 nM.

For `CCOc1cc(-n2cncn2)cnc1Nc1n[nH]c2cc([C@@H]3C[C@@]34C(=O)Nc3ccc(OC)cc34)ccc12` [Example 38, (1R,2S)-2-(3-{[3-ethoxy-5-(1H-1,2,4-triazol-1-yl)pyridin-2-yl]amino}-1H-indazol-6-yl)-5′-methoxyspiro[cyclopropane-1,3′-indol]-2′(1′H)-one], the “[Aurora A IC50 (nM)]/[PLK4 IC50 (nM)]” value in assay [1] amounted to 2756.5515. Moreover, it took 266 nM to reach half-maximal inhibition in the assay with CHP134 (IC50).

In the case of `COc1ccc2c(c1)[C@]1(C[C@H]1c1ccc3c(Nc4ccc(S(C)(=O)=O)cc4OC)n[nH]c3c1)C(=O)N2` [Example 2, (1R,2S)-2-{3-[4-(methanesulfonyl)-2-methoxyanilino]-1H-indazol-6-yl}-5′-methoxyspiro[cyclopropane-1,3′-indol]-2′(1′H)-one], the “[Aurora A IC50 (nM)]/[PLK4 IC50 (nM)]” value in assay [1] stood at 801.1462. The molecule further had an IC50 in the assay with CHP134 of 88.9 nM.

A word on the IC50: it is the concentration that inhibits the measured activity by half.
